In publication PMC12400508 (RSC Advances, 2025):
Values after ≈ are worked out from the molar mass of the structure shown.

Key:
Type in all cases: cell-based, Mycobacterium tuberculosis
mc^26230_R1 = system: mc^26230_R1
[1] = system: mc^26230 overexpressing InhA (pMV261_inhA); assay: microbe, parasite or virus in culture; conditions: for fold change between the strain harboring the empty plasmid pMV261 and the strain overexpressing InhA: MIC pMV261_inhA / MIC pMV261; for MIC: Mycobacterium tuberculosis, read-out: MIC, pMV261_inhA
mc^26230_R3 = system: mc^26230_R3

SMILES	MIC, mc^26230_R1 (mc^26230_R1)	fold increase of MIC in the KatG mutated strains versus parental strain (mc^26230_R1)	fold change between the strain harboring the empty plasmid pMV261 and the strain overexpressing InhA [1]	MIC [1]	MIC, mc^26230_R3 (mc^26230_R3)	MIC, pMV261_inhA [1]
Cc1ccccc1/C=C1\SC(NNC(=O)c2ccncc2)=NC1=O [9d]	50 µg/mL (≈ 148 µM)	32 fold	16 fold	50 µg/mL (≈ 148 µM)	50 µg/mL (≈ 148 µM)	
O=C1N=C(NNC(=O)c2ccncc2)S/C1=C\c1ccc(F)cc1 [9j]	100 µg/mL (≈ 292 µM)	8 fold	8 fold	100 µg/mL (≈ 292 µM)	100 µg/mL (≈ 292 µM)	
O=C1N=C(NNC(=O)c2ccncc2)S/C1=C\c1ccccc1F [9l]	100 µg/mL (≈ 292 µM)	4 fold			100 µg/mL (≈ 292 µM)	
O=C1N=C(NNC(=O)c2ccncc2)S/C1=C\c1ccc(Cl)cc1 [9n]	100 µg/mL (≈ 279 µM)	8 fold	4 fold	100 µg/mL (≈ 279 µM)	100 µg/mL (≈ 279 µM)	
O=C1N=C(NNC(=O)c2ccncc2)S/C1=C\c1ccccc1Cl [9p]	100 µg/mL (≈ 279 µM)	4 fold			100 µg/mL (≈ 279 µM)	
NNC(=O)c1ccncc1 [INH, isoniazid, reference compound]	>10 µg/mL		16 fold	1.25 µg/mL (≈ 9.11 µM)	>10 µg/mL	
CO[C@H]1/C=C/O[C@@]2(C)Oc3c(C)c(O)c4c(O)c(c(/C=N/N5CCN(C)CC5)c(O)c4c3C2=O)NC(=O)/C(C)=C\C=C\[C@H](C)[C@H](O)[C@@H](C)[C@@H](O)[C@@H](C)[C@H](OC(C)=O)[C@@H]1C [RIF, reference compound]			1 fold	0.039 µg/mL (≈ 0.0474 µM)		unaffected
